Earlier results in patent publication US20200093804A1, “PHARMACEUTICAL COMPOSITION OF EVEROLIMUS” (INTAS PHARMACEUTICALS LTD., priority 2017, published 2020).

Conditions: from literature

- solubility: poor
- stability: poor
SMILES: CO[C@H]1C[C@@H]2CC[C@@H](C)[C@@](O)(O2)C(=O)C(=O)N2CCCC[C@H]2C(=O)O[C@H]([C@H](C)C[C@@H]2CC[C@@H](OCCO)[C@H](OC)C2)CC(=O)[C@H](C)/C=C(\C)[C@@H](O)[C@@H](OC)C(=O)[C@H](C)C[C@H](C)/C=C/C=C/C=C/1C [Everolimus, (1R,9S,12S,15R,16E,18R,19R,21R,23S,24E,26E,28E,30S,32S,35R)-1,18dihydroxy-12-{(1R)-2-[(1S,3R,4R)-4-(2-hydroxyethoxy)-3-methoxycyclohexyl]-1-methylethyl}-19,30-dimethoxy15,17,21,23,29,35-hexamethyl-11, 36-dioxa-4-aza-tricyclo[30.3.1.04,9]hexatriaconta-16,24,26,28-tetraene-2,3,10, 14,20pentaone]
